Data set [1] in a line: rotarod test (acute neurological toxicity, motor coordination). The class given is in vivo. Conditions: male, CD-1 (albino Swiss), mouse, in vivo, ip, mice i.p. Background: Falling from the rotarod earlier than controls is read as motor impairment.
Experimental: The protective indexes (PIs) were then calculated as the ratio of TD50 to ED50 (PI = TD50/ED50), providing an assessment of the therapeutic window for each compound.
Each group consisted of six animals.
The next data set has as its target T1, GlyT1 (Rattus norvegicus, UniProt P28572).
T1 construct: Cerep Laboratories / Eurofins (contract assay)
T1 sequence (P28572 1-638): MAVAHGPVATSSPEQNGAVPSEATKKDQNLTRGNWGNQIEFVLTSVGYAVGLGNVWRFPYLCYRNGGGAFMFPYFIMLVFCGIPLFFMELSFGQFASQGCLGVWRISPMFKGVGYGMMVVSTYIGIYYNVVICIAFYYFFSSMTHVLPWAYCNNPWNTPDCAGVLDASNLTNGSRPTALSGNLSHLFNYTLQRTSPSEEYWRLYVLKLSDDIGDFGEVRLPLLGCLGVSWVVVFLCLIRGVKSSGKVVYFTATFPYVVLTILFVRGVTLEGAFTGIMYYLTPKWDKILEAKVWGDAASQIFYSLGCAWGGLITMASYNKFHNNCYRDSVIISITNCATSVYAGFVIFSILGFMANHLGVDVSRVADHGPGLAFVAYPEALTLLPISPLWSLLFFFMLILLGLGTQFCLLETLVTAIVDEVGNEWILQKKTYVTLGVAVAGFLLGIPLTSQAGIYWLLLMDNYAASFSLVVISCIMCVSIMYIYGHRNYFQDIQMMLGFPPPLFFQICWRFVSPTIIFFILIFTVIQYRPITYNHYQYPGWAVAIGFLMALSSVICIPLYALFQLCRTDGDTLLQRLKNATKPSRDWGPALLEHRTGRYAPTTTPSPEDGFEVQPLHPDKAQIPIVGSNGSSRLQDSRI
Nature of the data set: radioligand binding GlyT1. Conditions: rat cerebral cortex. As to the method:
(§1) Binding/functional studies were performed commercially in Cerep Laboratories (Poitiers, France) using testing procedures described elsewhere. The general information is listed in Table S3 in the Supporting Information.
(§2) Table S3. The general information of radioligand binding/functional assays. […]
GLYT1 (glycine transporter binding) (antagonist radioligand) […]
(§3) Assays were performed commercially in Eurofins Cerep SA (Celle l’Evescault, France) and Eurofins
(§4) Panlabs Discovery Services Taiwan, Ltd. (New Taipei City, Taiwan), using procedures describe

Data set [2] relates to Cav1.2 (L-type) (diltiazem site). Nature of the data set: radioligand binding Cav1.2 (L-type) diltiazem site. The following applies: 100 µM, rat cerebral cortex. On the procedure: as §1, §2
Ca2+channel (L, diltiazem site) (antagonist radioligand) […]
as §3, §4

In the next data set the test system is SH-SY5Y cells. Nature of the data set: neurocytotoxicity MTT viability assay. The class given is cell-based, human. The following applies: 1–50 µM, 24 h. As to the method: (§5) To evaluate selected compounds’ hepatocytotoxicity and neurocytotoxicity, a human hepatocellular carcinoma cell line, HepG2 (ATCC® HB-8065™), and a human neuroblastoma cell line, SH-SY5Y (ATCC®, CRL-2266™), were used. Both cell lines were cultured in standard culture conditions (5% CO2, 37 °C, 95% humidity) using Dulbecco′s Modified Eagle′s—Medium (DMEM; Gibco, Thermo Scientific, Waltham, MA, USA) supplemented with 10% (vol/vol) fetal bovine serum (FBS; Gibco, Thermo Scientific, Waltham, MA, USA) and an antibiotic mixture (Penicillin, Streptomycin, Amphotericin B; Gibco, Thermo Scientific, Waltham, MA, USA). Cells were cultured with compounds 5, […], or 39 (1–50 µM) for 24 h and then an MTT (3-(4,5-dimethylthiazol-2-yl)-2,5diphenyltetrazolium bromide, Sigma-Aldrich, St. Louis, MO, USA) viability assay was performed. The formazan crystals were dissolved in DMSO (Sigma-Aldrich, St. Louis, MO, USA), and the absorbance at 570 nm was measured using a microplate reader (SpectraMax® iD3, Molecular Devices, San Jose, CA, USA). The experiment was performed three times in duplicate. Each bar represents the mean (±SEM) percentage of viable cells in comparison to the control (defined as 100% and represented by untreated cells).
Figure 3 The viability of SH-SY5Y cells incubated in the presence of compounds 5, 17, and 39. […] Cell viability was measured using an MTT assay. […]
(In general: Formazan colour is commonly taken as a measure of viable cells.)

The subject of a further data set is HepG2 cells. The data set can be described thus: hepatocytotoxicity MTT viability assay. The class given is cell-based, human. Conditions: 1–50 µM, 24 h. On the procedure:
as §5
Figure 2 The viability of HepG2 cells incubated in the presence of 5, 17, and 39. HepG2 cells were exposed to growing concentrations (1–50 µM) of tested compounds for 24 h. Cell viability was measured using an MTT assay. Bars represent mean percent of cell viability normalized to non-treated cells (100%) ± SEM. The doxorubicin was tested as a positive control.

Consider `CC(C(=O)NCc1ccc(OCc2ccccc2)cc1)N1C(=O)CCC1=O` (stereo not drawn) [Compound 5, N-(4-(benzyloxy)benzyl)-2-(2,5-dioxopyrrolidin-1-yl)propanamide], for which the TD50 (commonly the dose at which the toxic effect under study appears in half of the subjects) at 0.5 h in data set [1] was over 300 mg/kg. The figures for the “% Inhibition of Control Specific Binding” value (on GlyT1 (100 µM); in data set [2]) were “no significant interaction” and 68.5 (100) %, respectively. At GlyT1 (read-out: % Inhibition of Control Specific Binding), the inhibition (commonly the percentage by which the read-out fell short of the control) at 100 µM is 23%. Further, in the data set with SH-SY5Y cells, the “toxic effect on SH-SY5Y cell viability (MTT)” value was “do not exhibit toxic effects”. Also, the “toxic effect on HepG2 cell viability (MTT)” value in the data set with HepG2 cells is recorded as “do not exhibit toxic effects”.

(Values after paper PMC11432405, “Development of Novel Alaninamide Derivatives with Anticonvulsant Activity and Favorable Safety Profiles in Animal Models” (International Journal of Molecular Sciences, 2024).)
